The values that follow come from patent publication US10086085B2, “Bifunctional cytotoxic agents” (priority 2014, dated 2018).

The structures appear in SMILES notation. A value given as a limit tells only on which side of the number the result lay.

In one assay the test system is N87 (human gastric carcinoma derived from metastatic liver site). Kind of assay: Cytotoxicity assay for payloads (MTS), N87 cells. It counts as cell-based. The following applies: Homo sapiens, 96 h, read-out: N87 IC50 (nM). On the procedure: (§1) Cancer cell lines were obtained from ATCC (Manassas, Va.). N87 (human gastric carcinoma derived from metastatic liver site). HL60 (leukemia), A375 (melanoma) and HUVEC (human umbilical vein endothelial cells). were grown in RPMI 1640 media. All media were supplemented with 10% fetal bovine serum, 1% sodium pyruvate, and 1% L-glutamine (Invitrogen, Grand Island, N.Y.). Human umbilical vein endothelial cells (HUVEC) were obtained from Lonza (Allendale, N.J.) and maintained in EGM2 media supplemented with EGM-2 SingleQuots (Lonza # CC-4176). All cells were maintained in a humidified incubator (37° C., 5% CO2).
(§2) Cells in 100 μl medium were cultured in a 96-well plate. Cancer cell lines treated with the indicated compounds by adding 50 μl of 3× stocks in duplicate at 10 concentrations. Cells were incubated with compounds for four days, then 30 μl of CellTiter® 96 AQueous One MTS Solution (Promega Cat # G3582) was added to the cells, incubated 1.5 hr at 37° C., then absorbance measured at 490 nm on a Victor plate reader (Perkin Elmer, Waltham, Mass.). Relative cell viability was determined as a percentage of untreated control wells. IC50 values were calculated using four parameter logistic model #203 with XLfit v4.2 (IDBS, Guildford, Surry, UK).
`CN(C)CCNC(=O)Oc1cc2c(c3ccccc13)[C@H](CCl)CN2C(=O)c1ccc(C(=O)N2C[C@@H](CCl)c3c2cc(O)c2ccccc32)s1` [Compound 123, (S)-1-(chloromethyl)-3-(5-((S)-1-(chloromethyl)-5-hydroxy-2,3-dihydro-1H-benzo[e]indole-3-carbonyl)thiophene-2-carbonyl)-2,3-dihydro-1H-benzo[e]indol-5-yl(2-(dimethylamino)ethyl)carbamate]: the IC50 came to 0.003 nM.

Staying with this assay, now noted: Homo sapiens, 96 h; N87 cells, incubated with compounds for four days, MTS absorbance 490 nm; read-out: N87 IC50.
In the case of `COC(=O)Oc1cc2c(c3ccccc13)[C@H](CCl)CN2C(=O)c1ccc(C(=O)N2C[C@@H](CCl)c3c2cc(O)c2ccccc32)s1` [Compound 119, (S)-1-(chloromethyl)-3-(5-((S)-1-(chloromethyl)-5-hydroxy-2,3-dihydro-1H-benzo[e]indole-3-carbonyl)thiophene-2-carbonyl)-2,3-dihydro-1H-benzo[e]indol-5-yl methyl carbonate], the IC50 is 0.004 nM.
`Cn1c(C(=O)N2C[C@@H](CCl)c3c2cc(O)c2ccccc32)ccc1C(=O)N1C[C@@H](CCl)c2c1cc(O)c1ccccc21` [Compound 38, (S)-(1-methyl-1H-pyrrole-2,5-diyl)bis(((S)-1-(chloromethyl)-5-hydroxy-1H-benzo[e]indol-3(2H)-yl)methanone)]: the IC50 was at least 10 nM.
The same measure, in the same setting: with `CC(=O)Oc1cc2c(c3ccccc13)[C@H](CCl)CN2C(=O)c1ccc(C(=O)N2C[C@@H](CCl)c3c2cc(OC(C)=O)c2ccccc32)[nH]1` [Compound 68, (1S,1′S)-3,3′-(1H-pyrrole-2,5-dicarbonyl)bis(1-(chloromethyl)-2,3-dihydro-1H-benzo[e]indole-5,3-diyl)diacetate] the figure was 0.033 nM.
Same read-out and setting: in the case of `CC(=O)Oc1cc2c(c3ccccc13)[C@H](CCl)CN2C(=O)c1cnc(C(=O)N2C[C@@H](CCl)c3c2cc(OC(C)=O)c2ccccc32)s1` [Compound 71, (1S,1′S)-3,3′-(thiazole-2,5-dicarbonyl)bis(1-(chloromethyl)-2,3-dihydro-1H-benzo[e]indole-5,3-diyl)diacetate] it was 0.085 nM.
On the same count and under the same terms, with `O=C(c1cncc(C(=O)N2C[C@@H](CCl)c3c2cc(O)c2ccccc32)c1)N1C[C@@H](CCl)c2c1cc(O)c1ccccc21` [Compound 26, (S)-pyridine-3,5-diylbis(((S)-1-(chloromethyl)-5-hydroxy-1H-benzo[e]indol-3(2H)-yl)methanone)] the figure was at least 10 nM; with `CC(=O)OC[C@H]1O[C@@H](Oc2cc3c(c4ccccc24)[C@H](CCl)CN3C(=O)c2ccc(C(=O)N3C[C@@H](CCl)c4c3cc(O)c3ccccc43)s2)[C@H](OC(C)=O)[C@@H](OC(C)=O)[C@H]1OC(C)=O` [Compound 153, (2R,3S,4S,5R,6S)-2-(acetoxymethyl)-6-(((S)-1-(chloromethyl)-3-(5-((S)-1-(chloromethyl)-5-hydroxy-2,3-dihydro-1H-benzo[e]indole-3-carbonyl)thiophene-2-carbonyl)-2,3-dihydro-1H-benzo[e]indol-5-yl)oxy)tetrahydro-2H-pyran-3,4,5-triyl triacetate], 4.47 nM.
Turning to `CC(=O)Oc1cc2c(c3ccccc13)[C@H](CCl)CN2C(=O)Cc1ccc(CC(=O)N2C[C@@H](CCl)c3c2cc(OC(C)=O)c2ccccc32)s1` [Compound 160, thiene-2,5-diylbis[(1-oxoethane-2,1-diyl)(1S)-1-(chloromethyl)-1,2-dihydro-3H-benzo[e]indole-3,5-diyl] diacetate], the IC50 is 12.7 nM.
As to `O=C(c1csc(C(=O)N2C[C@@H](CCl)c3c2cc(O)c2ccccc32)c1)N1C[C@@H](CCl)c2c1cc(O)c1ccccc21` [Compound 35, (S)-thiophene-2,4-diylbis(((S)-1-(chloromethyl)-5-hydroxy-1H-benzo[e]indol-3(2H)-yl)methanone)], the IC50 was 1.21 nM.
On to `Cc1c[nH]c2c(O)cc3c(c12)[C@H](CCl)CN3C(=O)c1ccc(C(=O)N2C[C@@H](CCl)c3c2cc(O)c2ccccc32)s1` [Compound 117, ((S)-1-Chloromethyl-5-hydroxy-1,2-dihydro-benzo[e]indol-3-yl)-[5-((S)-1-chloromethyl-5-hydroxy-8-methyl-1,6-dihydro-2H-pyrrolo[3,2-e]indole-3-carbonyl)-thiophen-2-yl]methanone], for which the IC50 was 0.004 nM.
With `CC(=O)Oc1cc2c(c3ccccc13)[C@H](CCl)CN2C(=O)c1ccc(C(=O)N2C[C@@H](CCl)c3c2cc(O)c2ccccc32)s1` [Compound 170, (1S)-1-(chloromethyl)-3-[(5-{[(1S)-1-(chloromethyl)-5-hydroxy-1,2-dihydro-3H-benzo[e]indol-3-yl]carbonyl}thiophen-2-yl)carbonyl]-2,3-dihydro-1H-benzo[e]indol-5-yl acetate], the IC50 was found to be 0.005 nM.
Turning to `O=C(N[C@@H](CCC(=O)N1C[C@@H](CCl)c2c1cc(O)c1ccccc21)C(=O)N1C[C@@H](CCl)c2c1cc(O)c1ccccc21)OCC1c2ccccc2-c2ccccc21` [Compound 60, [(S)-1-((S)-1-Chloromethyl-5-hydroxy-1,2-dihydro-benzo[e]indole-3-carbonyl)-4-((S)-1-chloromethyl-5-hydroxy-1,2-dihydro-benzo[e]indol-3-yl)-4-oxo-butyl]-carbamic acid 9H-fluoren-9-ylmethyl ester], the IC50 is at least 10 nM.
`O=C(CCc1ccc(CCC(=O)N2C[C@@H](CCl)c3c2cc(O)c2ccccc32)s1)N1C[C@@H](CCl)c2c1cc(O)c1ccccc21` [Compound 146, 3,3′-thiene-2,5-diylbis{1-[(1S)-1-(chloromethyl)-5-hydroxy-1,2-dihydro-3H-benzo[e]indol-3-yl]propan-1-one}]: the IC50 turned out to be 3.1 nM.
The same measure, in the same setting: in the case of `CC(=O)Oc1cc2c(c3ccccc13)[C@H](CCl)CN2C(=O)C12C3C4C1C1C2C3C41C(=O)N1C[C@@H](CCl)c2c1cc(OC(C)=O)c1ccccc21` (stereo partly drawn) [Compound 181, pentacyclo[4.2.0.0~2,5~.0~3,8~.0~4,7~]octane-1,4-diylbis[carbonyl(1S)-1-(chloromethyl)-1,2-dihydro-3H-benzo[e]indole-3,5-diyl] diacetate] it was 0.005 nM.

The same assay, now with this note: N87 cells, incubated with compounds for four days, MTS absorbance 490 nm; read-out: N87 IC50.
On to `CNCCN(C)C(=O)Oc1cc2c(c3ccccc13)[C@H](CCl)CN2C(=O)c1ccc(C(=O)N2C[C@@H](CCl)c3c2cc(O)c2ccccc32)s1` [Compound 126, (S)-1-(chloromethyl)-3-(5-((S)-1-(chloromethyl)-5-hydroxy-2,3-dihydro-1H-benzo[e]indole-3-carbonyl)thiophene-2-carbonyl)-2,3-dihydro-1H-benzo[e]indol-5-ylmethyl(2-(methylamino)ethyl)carbamate], for which the IC50 came to 0.004 nM.

The next assay has as its system HL60 (leukemia). Kind of assay: Cytotoxicity assay for payloads (MTS), HL-60 cells. The following applies: Homo sapiens, 96 h, incubated with compounds for four days, MTS absorbance 490 nm. Format: cell-based. On the procedure: as §1, §2
Turning to `CC(=O)Oc1cc2c(c3ccccc13)[C@H](CCl)CN2C(=O)CNCC(=O)N1C[C@@H](CCl)c2c1cc(OC(C)=O)c1ccccc21` [Compound 53, Acetic acid (S)-3-{2-[2-((S)-5-acetoxy-1-chloromethyl-1,2-dihydro-benzo[e]indol-3-yl)-2-oxo-ethylamino]-acetyl}-1-chloromethyl-2,3-dihydro-1H-benzo[e]indol-5-1 ester], the IC50 turned out to be 0.012 nM.
As for `CC(=O)Oc1cc2c(c3ccccc13)[C@H](CCl)CN2C(=O)[C@]12CCC[C@](C(=O)N3C[C@@H](CCl)c4c3cc(O)c3ccccc43)(C1)C2` [Compound 175, (1S)-1-(chloromethyl)-3-{[(1S,5S)-5-{[(1S)-1-(chloromethyl)-5-hydroxy-1,2-dihydro-3H-benzo[e]indol-3-yl]carbonyl}bicyclo[3.1.1]hept-1-yl]carbonyl}-2,3-dihydro-1H-benzo[e]indol-5-yl acetate], the IC50 was 11.8 nM.
`CC(=O)Oc1cc2c(c3ccccc13)[C@H](CCl)CN2C(=O)C12CCC(C(=O)N3C[C@@H](CCl)c4c3cc(O)c3ccccc43)(CC1)C2` [Compound 134, (1S)-1-(chloromethyl)-3-[(4-{[(1S)-1-(chloromethyl)-5-hydroxy-1,2-dihydro-3H-benzo[e]indol-3-yl]carbonyl}bicyclo[2.2.1]hept-1-yl)carbonyl]-2,3-dihydro-1H-benzo[e]indol-5-yl acetate]: the IC50 turned out to be 0.099 nM.
`O=C(O)[C@H]1O[C@@H](Oc2cc3c(c4ccccc24)[C@H](CCl)CN3C(=O)c2ccc(C(=O)N3C[C@@H](CCl)c4c3cc(O)c3ccccc43)s2)[C@H](O)[C@@H](O)[C@@H]1O` [Compound 164, (2S,3S,4S,5R,6S)-6-(((S)-1-(chloromethyl)-3-(5-((S)-1-(chloromethyl)-5-hydroxy-2,3-dihydro-1H-benzo[e]indole-3-carbonyl)thiophene-2-carbonyl)-2,3-dihydro-1H-benzo[e]indol-5-yl)oxy)-3,4,5-trihydroxytetrahydro-2H-pyran-2-carboxylic acid]: the IC50 came to 0.057 nM.
`CC(=O)Oc1cc2c(c3ccccc13)[C@H](CCl)CN2C(=O)[C@H]1C[C@@H](C(=O)N2C[C@@H](CCl)c3c2cc(OC(C)=O)c2ccccc32)C1` [Compound 168, cis-cyclobutane-1,3-diylbis[carbonyl(1S)-1-(chloromethyl)-1,2-dihydro-3H-benzo[e]indole-3,5-diyl] diacetate]: the IC50 worked out at 0.097 nM.

Broadly, the IC50 is the point on the concentration scale where inhibition reaches its midpoint.
